Results on two compounds are retold here after publication PMC3197159, “The Atypical Stimulant and Nootropic Modafinil Interacts with the Dopamine Transporter in a Different Manner than Classical Cocaine-Like Inhibitors” (PLoS ONE, 2011).

SMILES strings stand for the structures.

Assay [1] relates to NET. Also on record: method as in Madras et al. (2006) 53. The settings on record: ref Madras et al. (2006) 53; read-out: IC50, inhibition of noradrenaline uptake by the NET; cited from earlier work.
Assay [2] deals with WT human DAT (Homo sapiens, UniProt Q01959). Kind of assay: [3H]CFT binding inhibition, intact HEK293 cells expressing WT hDAT. To be noted: inhibition by cold β-CFT.

Regarding `NC(=O)C[S+]([O-])C(c1ccccc1)c1ccccc1` (racemic) [(±)-modafinil, 2-(benzhydrylsulfinyl)acetamide], the IC50 in assay [1] is […].

WT human DAT, sequence (Q01959 whole entry): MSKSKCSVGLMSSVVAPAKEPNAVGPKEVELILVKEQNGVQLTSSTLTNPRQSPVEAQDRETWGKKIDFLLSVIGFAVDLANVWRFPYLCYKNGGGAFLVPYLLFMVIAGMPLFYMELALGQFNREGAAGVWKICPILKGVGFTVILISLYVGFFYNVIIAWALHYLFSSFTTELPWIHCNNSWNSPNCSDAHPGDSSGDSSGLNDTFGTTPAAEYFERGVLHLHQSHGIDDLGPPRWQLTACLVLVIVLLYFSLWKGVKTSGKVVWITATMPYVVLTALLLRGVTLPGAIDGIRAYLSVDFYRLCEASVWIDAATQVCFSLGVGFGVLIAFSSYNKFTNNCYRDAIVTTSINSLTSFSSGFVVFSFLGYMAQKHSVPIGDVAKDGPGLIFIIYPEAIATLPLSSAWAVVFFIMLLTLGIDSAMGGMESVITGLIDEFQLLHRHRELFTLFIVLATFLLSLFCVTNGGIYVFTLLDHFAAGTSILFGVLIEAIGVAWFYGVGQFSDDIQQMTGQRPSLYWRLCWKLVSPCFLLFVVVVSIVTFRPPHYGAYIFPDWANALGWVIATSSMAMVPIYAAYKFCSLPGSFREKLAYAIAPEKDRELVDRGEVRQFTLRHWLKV

As to `COC(=O)C1C(c2ccc(F)cc2)CC2CCC1N2C` (stereo not drawn) [β-CFT], the “Bmax of [3H]CFT binding, sodium-free + Zn2+” value in assay [2] (sodium-free conditions with 10 µM Zn2+) amounted to 502±78 fmole/well. In assay [2] (sodium-free conditions, no Zn2+), the “Bmax of [3H]CFT binding, sodium-free” value is 125±15.8 fmole/well.

The term IC50 denotes the concentration that inhibits the measured activity by half.
